Here are results for three molecules from patent publication US11865506B2, “Pyraclostrobin microcapsule based on sodium alginate and preparation method” (ANHUI AGRICULTURAL UNIVERSITY, priority 2022, dated 2024).

For series [1] the following is noted: organic solvent; cited from earlier work.
Series [2] in a line: Photostability under ultraviolet light. It is filed as physicochemical. The source says:
(§1) The cold storage stability, hot storage stability, and photostability are experimented respectively.
Determination of the active ingredient residual concentration of the original drug and microcapsules under the same ultraviolet light conditions, the results are shown in Table 15.

Series [3] in a line: Cold and hot storage stability. Conditions: for Stability / decomposition rate on cold storage: stored at 4° C. and −20° C. It is filed as physicochemical.
From the text: as §1

The test system of series [4] is Fusarium pseudograminearum. The experiment in a line: microbe, parasite or virus in culture. The series is classed as cell-based.
Procedure: By mycelium growth rate method, the fungicidal activity of pyraclostrobin original drug and the prepared pyraclostrobin SA microcapsules against Fusarium pseudograminearum is determined, and the release rule of the microcapsules in the culture medium is determined.
Inclined experiment tube storage method: inoculate the strain of Fusarium pseudograminearum on a PDA plate for activation treatment, place the plate in a constant temperature incubator at 25° C. after sealing, and incubate for 3 days. Pick out the edge bacteria, transfer to a PDA slant experiment tube, and cultivate at a constant temperature at 25° C. until the colonies cover the surface of the slant, then put the experiment tube into a 4° C. refrigerator for storage until use. […]
Activate the Fusarium pseudograminearum on a drug-free PDA plate in advance, after culturing at 25° C. for 3 days, beat the fungus cake along the edge of the colony, pick the fungus cake with an inoculation needle every 0, 4, 8, 12, and 16 days and transfer it reversely to the center of the drug-containing medium; seal and store the culture dish, and place in a constant temperature incubator at 25° C. for cultivation. After each cultivation for 3 days, the diameter of the colony is measured by the cross method, and the average value is used to calculate the antibacterial rate as follows. […]
The conditions of series [5]: 25° C., cited from earlier work.

Converted amounts (≈) assume the structure as drawn. Like-named read-outs stand apart in the source and are kept apart here.

As to `CC(C)=O` [Acetone], in series [1], the Toxicity result is reported as “Low”.
As to `CCOC(C)=O` [Ethyl acetate], in series [1], the Toxicity result was “Low”.
The molecule `COC(=O)N(OC)c1ccccc1COc1ccn(-c2ccc(Cl)cc2)n1` [Original drug, pyraclostrobin] returned a Photolysis rate constant in series [2] (Ct = C0 × e^−kt) of 0.03. Further, the “Residual concentration of the active ingredient” value in series [2] (final time of 60 minutes) amounted to 1.384 µg/mL. For the same molecule, the Photolysis half life in series [2] (first-level kinetic equation) is 21.01 min. In series [2] (first-level kinetic equation, read-out: Photolysis half life), the half-life at 9.986 μg/mL was 21 min. In addition, the Decomposition rate in series [3] (storage at 25° C. for 30 days) is on record as 2.2%; in series [3] (storage at 54° C. for 30 days), 40.25%. The “Stability / decomposition rate on cold storage” value in series [3] is on record as “better stability”; in series [3] (listed as pyraclostrobin original drug), “extremely low”. The molecule also yielded an EC50 in series [4] of 0.097 µg/mL (≈ 0.25 µM). Moreover, the “Solubility to original drug” value is ≥65 g/100 mL in series [5] (in acetone), ≥10 g/100 mL in series [5] (in ethanol), ≥65 g/100 mL in series [5] (in ethyl acetate) and ≥10 g/100 mL in series [5] (in methanol).
